Measurements: publication PMC6803848, “Exploring New Structural Features of the 18β-Glycyrrhetinic Acid Scaffold for the Inhibition of Anaplastic Lymphoma Kinase” (Molecules, 2019)

Key:
A549 = test: MTT antiproliferative assay, A549 cells; format: cell-based; settings: Homo sapiens, 48 h, MTT, read-out: Antiproliferative activity (growth inhibition, %); for inhibition at 2 µg/mL: A549, 2 μg/mL; for inhibition at 20 µg/mL: A549, 20 μg/mL
Method: (§1) All the cells were seeded in 96-well plates and incubated with 5% CO2 at 37 °C for 24 h. Next, the compounds and the reference were dissolved into the culture medium. The final concentration of DMSO in the medium was less than 0.5%. After the cells were treated with compounds for 48 h, the supernatant was removed and 5 mg/mL of a fresh prepared solution of MTT was added to each well and incubated with the cells at 37 °C for another 4 h. The medium was removed, and 100 μL of testing solution was added to each well. After an overnight incubation with 5% CO2 at 37 °C, the absorbance was measured at 490/630 nm by the microplate reader. The IC50 was calculated using GraphPad Prism version 6.0 software (San Diego, CA, USA) from the non-linear curve.

HT29 = test: MTT antiproliferative assay, HT29 cells; format: cell-based; settings: Homo sapiens, HT-29, 48 h, MTT, read-out: Antiproliferative activity (growth inhibition, %); for inhibition at 2 µg/mL: HT29, 2 μg/mL; for inhibition at 20 µg/mL: HT29, 20 μg/mL
Method: as §1

Row | SMILES | melting point [°C] | inhibition at 2 µg/mL (A549) [%] | inhibition at 20 µg/mL (A549) [%] | inhibition at 2 µg/mL (HT29) [%] | inhibition at 20 µg/mL (HT29) [%]
1 | CC1(C(=O)O)CCC2(C)CCC3(C)C(=CC(=O)C4C5(C)CCC(OC(=O)Cc6ccc(Cl)cc6)C(C)(C)C5CCC43C)C2C1 (stereo not drawn) [7a, 3β-(2-(4-chlorophenyl)acetoxy)-11-oxo-olean-12-en-30-oic acid] | 312 to 312.7 | 11.3 | 27.4 | 33.3 | 57.5
2 | CC1(C)C2CC[C@]3(C)[C@H](C(=O)C=C4[C@@H]5C[C@@](C)(C(=O)O)CC[C@]5(C)CC[C@]43C)[C@@]2(C)CC[C@@H]1OC(=O)CN1CCN(c2ccccn2)CC1 (stereo partly drawn) [6d, 3β-(2-(4-(pyridin-2-yl)piperazin-1-yl)acetoxy)-11-oxo-olean-12-en-30-oic acid] | 294 to 295.6 | 0 | 0 | 0 | 0
3 | CC1(C(=O)N2CCOCC2)CCC2(C)CCC3(C)C(=CC(=O)C4C5(C)CCC(OC(=O)Nc6ccc(OC(F)(F)F)cc6)C(C)(C)C5CCC43C)C2C1 (stereo not drawn) [4n, 3β-(((4-(trifluoromethoxy)phenyl)carbamoyl)oxy)-30-morpholino-olean-12-ene-11,30-dione] | 308 to 310.1 | 0 | 0 | 7.12 | 40.2
4 | CC1(C)C2CC[C@]3(C)[C@H](C(=O)C=C4[C@@H]5C[C@@](C)(C(=O)O)CC[C@]5(C)CC[C@]43C)[C@@]2(C)CC[C@@H]1OC(=O)Nc1ccc(Br)cc1 (stereo partly drawn) [3g, 3β-(((4-bromophenyl)carbamoyl)oxy)-11-oxo-olean-12-en-30-oic acid] | 263 to 265 | 9.72 | 63.4 | 18.6 | 76.5
5 | CC1(C)C2CC[C@]3(C)[C@H](C(=O)C=C4[C@@H]5C[C@@](C)(C(=O)N6CCOCC6)CC[C@]5(C)CC[C@]43C)[C@@]2(C)CC[C@@H]1OC(=O)Nc1cc(Cl)cc(Cl)c1 (stereo partly drawn) [4c, 3β-(((3,5-dichlorophenyl)carbamoyl)oxy)-30-morpholino-olean-12-ene-11,30-dione] | 278.2 to 280.3 | 0 | 0 | 7.41 | 2.76
6 | CC1(C)C2CC[C@]3(C)[C@H](C(=O)C=C4[C@@H]5C[C@@](C)(C(=O)O)CC[C@]5(C)CC[C@]43C)[C@@]2(C)CC[C@@H]1OC(=O)CN1CCOCC1 (stereo partly drawn) [6a, 3β-(2-morpholinoacetoxy)-11-oxo-olean-12-en-30-oic acid] | 275.3 to 276.4 | 0 | 0 | 0 | 0
7 | CC1(C(=O)N2CCOCC2)CCC2(C)CCC3(C)C(=CC(=O)C4C5(C)CCC(OC(=O)Nc6cccc(C(F)(F)F)c6)C(C)(C)C5CCC43C)C2C1 (stereo not drawn) [4j, 3β-(((3-(trifluoromethyl)phenyl)carbamoyl)oxy)-30-morpholino-olean-12-ene-11,30-dione] | 295 to 296.7 | 0 | 0 | 20.3 | 36.4
8 | COc1ccc(NC(=O)O[C@H]2CC[C@@]3(C)C(CC[C@]4(C)[C@@H]3C(=O)C=C3[C@@H]5C[C@@](C)(C(=O)N6CCOCC6)CC[C@]5(C)CC[C@]34C)C2(C)C)cc1 (stereo partly drawn) [4m, 3β-(((4-methoxyphenyl)carbamoyl)oxy)-30-morpholino-olean-12-ene-11,30-dione] | 305 to 306.7 | 0 | 8.11 | 15.7 | 23.2
9 | CC1(C)C2CC[C@]3(C)[C@H](C(=O)C=C4[C@@H]5C[C@@](C)(C(=O)O)CC[C@]5(C)CC[C@]43C)[C@@]2(C)CC[C@@H]1OC(=O)CN1CCC(C(N)=O)CC1 (stereo partly drawn) [6b, 3β-(2-(4-carbamoylpiperidin-1-yl)acetoxy)-11-oxo-olean-12-en-30-oic acid] | 283.5 to 285 | 0 | 0 | 0 | 12.3
10 | CC1(C)C2CC[C@]3(C)[C@H](C(=O)C=C4[C@@H]5C[C@@](C)(C(=O)O)CC[C@]5(C)CC[C@]43C)[C@@]2(C)CC[C@@H]1OC(=O)Nc1ccc(Cl)cc1 (stereo partly drawn) [3d, 3β-(((4-chlorophenyl)carbamoyl)oxy)-11-oxo-olean-12-en-30-oic acid] | 235.1 to 236.7 | 9.93 | 55.4 | 13.7 | 56.2
11 | CC1(C(=O)N2CCOCC2)CCC2(C)CCC3(C)C(=CC(=O)C4C5(C)CCC(OC(=O)Nc6ccc(Br)cc6)C(C)(C)C5CCC43C)C2C1 (stereo not drawn) [4g, 3β-(((4-bromophenyl)carbamoyl)oxy)-30-morpholino-olean-12-ene-11,30-dione] |  | 0 | 1.02 | 14.3 | 27.1
12 | CC1(C)C2CC[C@]3(C)[C@H](C(=O)C=C4[C@@H]5C[C@@](C)(C(=O)O)CC[C@]5(C)CC[C@]43C)[C@@]2(C)CC[C@@H]1OC(=O)Cc1ccc(F)cc1 (stereo partly drawn) [7b, 3β-(2-(4-fluorophenyl)acetoxy)-11-oxo-olean-12-en-30-oic acid] | 305 to 307.7 | 15.3 | 31.2 | 44.1 | 59
13 | Cc1ccc(NC(=O)O[C@H]2CC[C@@]3(C)C(CC[C@]4(C)[C@@H]3C(=O)C=C3[C@@H]5C[C@@](C)(C(=O)O)CC[C@]5(C)CC[C@]34C)C2(C)C)cc1Cl (stereo partly drawn) [3f, 3β-(((3-chloro-4-methylphenyl)carbamoyl)oxy)-11-oxo-olean-12-en-30-oic acid] | 270.7 to 271.6 | 11.4 | 80.2 | 15.6 | 89.2
14 | CC1(C)C2CC[C@]3(C)[C@H](C(=O)C=C4[C@@H]5C[C@@](C)(C(=O)N6CCOCC6)CC[C@]5(C)CC[C@]43C)[C@@]2(C)CC[C@@H]1OC(=O)Nc1cccc(Cl)c1 (stereo partly drawn) [4e, 3β-(((3-chlorophenyl)carbamoyl)oxy)-30-morpholino-olean-12-ene-11,30-dione] | 291 to 292.5 | 0 | 0 | 7.22 | 13.2
15 | CC1(C)C2CC[C@]3(C)[C@H](C(=O)C=C4[C@@H]5C[C@@](C)(C(=O)O)CC[C@]5(C)CC[C@]43C)[C@@]2(C)CC[C@@H]1OC(=O)Nc1ccc(C(F)(F)F)cc1 (stereo partly drawn) [3i, 3β-(((4-(trifluoromethyl)phenyl)carbamoyl)oxy)-11-oxo-olean-12-en-30-oic acid] | 242.1 to 242.9 | 15.9 | 87.5 | 19.4 | 90.1
16 | CC1(C)C2CC[C@]3(C)[C@H](C(=O)C=C4[C@@H]5C[C@@](C)(C(=O)N6CCOCC6)CC[C@]5(C)CC[C@]43C)[C@@]2(C)CC[C@@H]1OC(=O)Nc1ccc(Cl)c(Cl)c1 (stereo partly drawn) [4a, 3β-(((3,4-dichlorophenyl)carbamoyl)oxy)-30-morpholino-olean-12-ene-11,30-dione] | 292.5 to 293 | 0 | 0 | 8.88 | 18.3
